According to ChEMBL document CHEMBL1146067, “Free radical scavenging and antioxidant activities of substituted hexahydropyridoindoles. Quantitative structure-activity relationships” (J Med Chem, 2006):

Tested on: Radical scavenging activity
Experiment: Antioxidant activity in unilamellar DOPC liposomes
Assay type: functional, subcellular, Liposome

In order of falling “Log IC50” value:
1. COc1ccc2c(c1)[C@H]1CN(C)CC[C@H]1N2  -4.48
2. Cc1cc2c(c([N+](=O)[O-])c1)N[C@H]1CCN(C)C[C@@H]21 (racemic)  -4.58
3. Cc1ccc2c(c1)[C@H]1CN(C)CC[C@H]1N2 [STOBADINE]  -4.6
4. Cc1cc2c(c(N(C)C)c1)N[C@H]1CCN(C)C[C@@H]21 (racemic)  -4.66
5. CN1CC[C@@H]2Nc3ccc(O)cc3[C@@H]2C1 (racemic)  -4.68
6. CCOC(=O)N1CC[C@@H]2Nc3cc(C)c(OC)c(C)c3[C@@H]2C1 (racemic)  -4.7
7. COC(=O)N1CC[C@@H]2Nc3cc(C)c(OC)c(C)c3[C@@H]2C1 (racemic)  -4.71
8. COC(=O)N1CC[C@@H]2Nc3c(Br)c(C)c(OC)c(C)c3[C@@H]2C1 (racemic)  -4.71
9. Cc1cc(Br)c2c(c1)[C@@H]1CN(C)CC[C@@H]1N2 (racemic)  -4.8
10. Cc1cc(N)c2c(c1)[C@@H]1CN(C)CC[C@@H]1N2 (racemic)  -4.9
11. COc1ccc2c(c1)[C@@H]1CN(C(=O)OC(C)(C)C)CC[C@@H]1N2 (racemic)  -5.12
12. CCCOC(=O)N1CC[C@@H]2Nc3cc(C)c(OC)c(C)c3[C@@H]2C1 (racemic)  -5.16
13. COc1c(C)cc2c(c1C)[C@@H]1CN(C(=O)OCC(C)C)CC[C@@H]1N2 (racemic)  -5.19
14. COc1cc(C)c2c(c1)[C@@H]1CN(C(=O)OCc3ccccc3)CC[C@@H]1N2 (racemic)  -5.29
15. CCCCOC(=O)N1CC[C@@H]2Nc3cc(C)c(OC)c(C)c3[C@@H]2C1 (racemic)  -5.35
16. Cc1cc(C)c2c(c1)[C@@H]1CN(C(=O)OCc3ccccc3)CC[C@@H]1N2 (racemic)  -5.36
17. COc1c(C)cc2c(c1C)[C@@H]1CN(C(=O)OCc3ccccc3)CC[C@@H]1N2 (racemic)  -5.48
18. COc1ccc2c(c1)[C@@H]1CN(C(=O)OCc3ccccc3)CC[C@@H]1N2 (racemic)  -5.49
19. Cc1c(Br)cc2c(c1C)N[C@H]1CCN(C(=O)OCc3ccccc3)C[C@@H]21 (racemic)  -5.53
